Data from patent publication US12421205B2, “GLP-1 receptor agonist” (HYUNDAI PHARM CO., LTD., priority 2019, dated 2025).

What was measured:
human GLP-1 receptor = molecular target: T1, human GLP-1 receptor (Homo sapiens, UniProt P43220); test: cAMP activity test (cAMP dynamic HTRF kit) in CHO-K1/GLP-1 receptor-expressing cells; type: cell-based; details: cAMP activity, CHO-K1/GLP-1 receptor-expressing cells; read-out: EC50
T1 construct: host or cells: CHO-K1
Outline: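 Cells in HBSS with 0.1% BSA, 0.5 mM IBMX and 5 mM HEPES, then lysed; cAMP-d2 and anti-cAMP cryptate added for 3 h. HTRF read-out, where FRET signal is inversely proportional to intracellular cAMP.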

hERG = molecular target: T2, hERG (Homo sapiens, UniProt Q12809); test: hERG inhibition test (Predictor hERG Fluorescence Polarization assay kit); type: binding; details: probe kit Tracer (fluorescent hERG ligand), hERG % inhibition at 10 uM, relative to E-4031 and solvent control
T2 construct: purchased Invitrogen PV5365
T2 sequence (Q12809 whole entry): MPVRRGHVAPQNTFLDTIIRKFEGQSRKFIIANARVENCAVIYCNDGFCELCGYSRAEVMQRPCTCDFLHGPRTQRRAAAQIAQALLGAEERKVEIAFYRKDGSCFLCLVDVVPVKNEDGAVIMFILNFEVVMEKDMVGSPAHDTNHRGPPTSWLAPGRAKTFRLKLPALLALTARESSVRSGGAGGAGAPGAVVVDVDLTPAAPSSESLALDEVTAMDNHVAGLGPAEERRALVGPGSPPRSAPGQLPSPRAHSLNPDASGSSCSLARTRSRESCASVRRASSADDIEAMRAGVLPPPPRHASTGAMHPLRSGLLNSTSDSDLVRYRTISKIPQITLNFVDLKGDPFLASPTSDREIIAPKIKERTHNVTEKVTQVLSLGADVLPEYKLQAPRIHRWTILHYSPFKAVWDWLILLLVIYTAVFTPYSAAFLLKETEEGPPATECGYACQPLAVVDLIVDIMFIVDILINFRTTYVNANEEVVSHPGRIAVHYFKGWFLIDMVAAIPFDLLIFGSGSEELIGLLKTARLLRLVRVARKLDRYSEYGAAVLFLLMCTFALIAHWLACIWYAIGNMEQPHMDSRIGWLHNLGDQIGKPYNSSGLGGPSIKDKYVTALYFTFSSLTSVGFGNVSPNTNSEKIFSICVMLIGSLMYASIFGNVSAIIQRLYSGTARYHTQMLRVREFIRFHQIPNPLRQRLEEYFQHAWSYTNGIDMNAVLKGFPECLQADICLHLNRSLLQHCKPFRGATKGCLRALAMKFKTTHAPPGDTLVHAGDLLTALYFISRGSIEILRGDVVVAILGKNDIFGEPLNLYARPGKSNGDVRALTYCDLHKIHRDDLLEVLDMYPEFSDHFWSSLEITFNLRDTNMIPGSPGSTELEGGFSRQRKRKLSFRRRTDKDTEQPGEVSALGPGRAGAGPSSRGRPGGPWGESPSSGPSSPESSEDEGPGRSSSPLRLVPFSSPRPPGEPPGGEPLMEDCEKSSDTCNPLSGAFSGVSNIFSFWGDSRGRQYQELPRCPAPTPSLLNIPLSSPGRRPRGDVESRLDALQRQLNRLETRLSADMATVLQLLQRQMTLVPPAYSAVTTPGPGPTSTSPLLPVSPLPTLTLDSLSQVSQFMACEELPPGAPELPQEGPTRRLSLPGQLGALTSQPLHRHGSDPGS
Outline: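 Competitive fluorescence-polarization binding of fluorescent tracer to hERG membrane preparation, 2.5 h at room temperature, mP read at 531/579 nm. % inhibition at 10 uM test compound, scaled between solvent control (0%) and E-4031 (100%).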

T1 sequence (P43220 24-463): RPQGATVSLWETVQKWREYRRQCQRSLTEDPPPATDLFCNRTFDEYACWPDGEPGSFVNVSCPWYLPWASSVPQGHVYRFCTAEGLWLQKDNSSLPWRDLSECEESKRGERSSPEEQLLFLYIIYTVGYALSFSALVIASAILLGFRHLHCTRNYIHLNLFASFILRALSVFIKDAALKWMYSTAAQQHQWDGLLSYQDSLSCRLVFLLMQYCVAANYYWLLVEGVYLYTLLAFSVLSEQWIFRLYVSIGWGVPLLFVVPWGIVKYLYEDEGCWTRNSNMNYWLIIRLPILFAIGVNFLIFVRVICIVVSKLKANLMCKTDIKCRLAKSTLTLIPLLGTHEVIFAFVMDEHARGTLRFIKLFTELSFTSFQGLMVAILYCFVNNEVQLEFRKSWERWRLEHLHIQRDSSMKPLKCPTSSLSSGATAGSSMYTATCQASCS

Row | SMILES | EC50 (human GLP-1 receptor) [nM] | inhibition at 2.5 h, 10 µM (hERG) [%]
1 | COCCn1c(Cc2ccc(-c3cccc(OCc4ccc(C#N)cc4F)n3)cc2C)nc2ccc(C(=O)O)cc21 [Example 54, 2-(4-(6-(4-cyano-2-fluorobenzyloxy)pyridin-2-yl)-2-methylbenzyl)-1-(2-methoxyethyl)-1H-benzo[d]imidazole-6-carboxylic acid] | 110 | 36.5
2 | O=C(O)c1ccc2nc(Cc3ccc(-c4cccc(OCc5ccc(Cl)cc5F)n4)cc3F)n(CCF)c2c1 [Example 43, 2-(4-(6-(4-chloro-2-fluorobenzyloxy)pyridin-2-yl)-2-fluorobenzyl)-1-(2-fluoroethyl)-1H-benzo[d]imidazole-6-carboxylic acid] | 72 | -2.26
3 | Cc1cc(Cc2nc3ccc(C(=O)O)cc3n2Cc2ccco2)ccc1-c1cccc(OCc2ccc(C#N)cc2F)n1 [Example 30, 2-(4-(6-(4-cyano-2-fluorobenzyloxy)pyridin-2-yl)-3-methylbenzyl)-1-(furan-2-ylmethyl)-1H-benzo[d]imidazole-6-carboxylic acid] | 460 | 0.33
4 | COCCn1c(Cc2ccc(-c3cccc(OCc4ccc(C#N)cc4F)n3)cc2F)nc2ccc(C(=O)O)cc21 [Example 25, 2-(4-(6-(4-cyano-2-fluorobenzyloxy)pyridin-2-yl)-2-fluorobenzyl)-1-(2-methoxyethyl)-1H-benzo[d]imidazole-6-carboxylic acid] | 43 | 18.9
5 | N#Cc1ccc(COc2cccc(-c3ccc(Cc4nc5ccc(C(=O)O)cc5n4CC4CCCO4)c(F)c3)c2)c(F)c1 (stereo not shown) [Example 14, 2-((3′-(4-cyano-2-fluorobenzyloxy)-3-fluorobiphenyl-4-yl)methyl)-1-((tetrahydrofuran-2-yl)methyl)-1H-benzo[d]imidazole-6-carboxylic acid] | 93 | -6.08
6 | COCCn1c(Cc2ccc(-c3cccc(OCc4ccc(C#N)cc4F)c3)cc2)nc2ccc(C(=O)O)cc21 [Example 21, 2-((3′-(4-cyano-2-fluorobenzyloxy)biphenyl-4-yl)methyl)-1-(2-methoxyethyl)-1H-benzo[d]imidazole-6-carboxylic acid] | 420 | -9.94
7 | N#Cc1ccc(COc2cccc(-c3ccc(Cc4nc5ccc(C(=O)O)cc5n4C[C@H]4CCCO4)c(F)c3)c2)c(F)c1 [Example 46, (R)-2-((3′-(4-cyano-2-fluorobenzyloxy)-3-fluorobiphenyl-4-yl)methyl)-1-((tetrahydrofuran-2-yl)methyl)-1H-benzo[d]imidazole-6-carboxylic acid] | 260 | 1.04
8 | O=C(O)c1ccc2nc(Cc3ccc(-c4cccc(OCc5ccc(Cl)cc5F)n4)c(F)c3)n(C[C@H]3CCCO3)c2c1 [Example 52, (R)-2-(4-(6-(4-chloro-2-fluorobenzyloxy)pyridin-2-yl)-3-fluorobenzyl)-1-((tetrahydrofuran-2-yl)methyl)-1H-benzo[d]imidazole-6-carboxylic acid] | 110 | 24.2
9 | O=C(O)c1ccc2nc(Cc3ccc(-c4ccc(F)c(OCc5ccc(Cl)cc5F)n4)cc3F)n(CC3CCCO3)c2c1 (stereo not shown) [Example 91, 2-(4-(6-(4-chloro-2-fluorobenzyloxy)-5-fluoropyridin-2-yl)-2-fluorobenzyl)-1-((tetrahydrofuran-2-yl)methyl)-1H-benzo[d]imidazole-6-carboxylic acid] | 7.2 | -68.2
10 | N#Cc1ccc(COc2cccc(-c3ccc(Cc4nc5ccc(C(=O)O)cc5n4CC4CCCO4)c(F)c3F)n2)c(F)c1 (stereo not shown) [Example 62, 2-(4-(6-(4-cyano-2-fluorobenzyloxy)pyridin-2-yl)-2,3-difluorobenzyl)-1-((tetrahydrofuran-2-yl)methyl)-1H-benzo[d]imidazole-6-carboxylic acid] | 37 | -7.49
11 | Cc1cccc(COc2cccc(-c3ccc(Cc4nc5ccc(C(=O)O)cc5n4CC4CCCO4)c(F)c3)n2)c1 (stereo not shown) [Example 80, 2-(2-fluoro-4-(6-(3-methylbenzyloxy)pyridin-2-yl)benzyl)-1-((tetrahydrofuran-2-yl)methyl)-1H-benzo[d]imidazole-6-carboxylic acid] | 190 | -25.2
12 | O=C(O)c1ccc2nc(Cc3c(F)cc(-c4cccc(OCc5ccc(Cl)cc5F)n4)cc3F)n(C[C@@H]3CCO3)c2c1 [Example 84, (S)-2-(4-(6-(4-chloro-2-fluorobenzyloxy)pyridin-2-yl)-2,6-difluorobenzyl)-1-(oxetan-2-ylmethyl)-1H-benzo[d]imidazole-6-carboxylic acid] | 4 | -1.15

More lines, main results first:

Row | EC50 (human GLP-1 receptor) [nM] | SMILES | inhibition at 2.5 h, 10 µM (hERG) [%]
13 | 320 | O=C(O)c1ccc2nc(Cc3ccc(-c4cccc(OCc5cc(F)cc(Cl)c5)n4)c(F)c3)n(CC3CCCO3)c2c1 (stereo not shown) [Example 100, 2-(4-(6-(3-chloro-5-fluorobenzyloxy)pyridin-2-yl)-3-fluorobenzyl)-1-((tetrahydrofuran-2-yl)methyl)-1H-benzo[d]imidazole-6-carboxylic acid] | -10.2
14 | 1600 | O=C(O)c1ccc2nc(Cn3cc(-c4cccc(OCc5ccc(Cl)cc5F)n4)cn3)n(C[C@@H]3CCO3)c2c1 [Example 131, (S)-2-((4-(6-((4-chloro-2-fluorobenzyl)oxy)pyridin-2-yl)-1H-pyrazol-1-yl)methyl)-1-(oxetan-2-ylmethyl)-1H-benzo[d]imidazole-6-carboxylic acid] | -0.97
15 | 14 | O=C(O)c1ccc2nc(Cc3ccc(-c4cccc(OCc5ccc(Cl)cc5)n4)c(F)c3)n(C[C@@H]3CCO3)c2c1 [Example 123, (S)-2-(4-(6-((4-chlorobenzyl)oxy)pyridin-2-yl)-3-fluorobenzyl)-1-(oxetan-2-ylmethyl)-1H-benzo[d]imidazole-6-carboxylic acid] | -0.45
16 | 830 | N#Cc1ccc(COc2cc(-c3ccc(Cc4nc5ccc(C(=O)O)cc5n4CC4CCCO4)c(F)c3)ccc2F)c(F)c1 (stereo not shown) [Example 96, 2-((3′-(4-cyano-2-fluorobenzyloxy)-3,4′-difluorobiphenyl-4-yl)methyl)-1-((tetrahydrofuran-2-yl)methyl)-1H-benzo[d]imidazole-6-carboxylic acid] | 5.19
17 | 31 | O=C(O)c1ccc2nc(Cc3ccc(-c4cccc(OCc5ccc(C(F)(F)F)cc5)n4)c(F)c3)n(CC3CCCO3)c2c1 (stereo not shown) [Example 97, 2-(3-fluoro-4-(6-(4-(trifluoromethyl)benzyloxy)pyridin-2-yl)benzyl)-1-((tetrahydrofuran-2-yl)methyl)-1H-benzo[d]imidazole-6-carboxylic acid] | 6.11
